Results: ChEMBL document CHEMBL1151757, “Synthesis, radiosynthesis, and biological evaluation of fluorine-18-labeled 2beta-carbo(fluoroalkoxy)-3beta-(3'-((Z)-2-haloethenyl)phenyl)nortropanes: candidate radioligands for in vivo imaging of the serotonin transporter with positron emission tomography” (J Med Chem, 2008)

What was measured:
[1] = Ratio of drug uptake in medulla to cerebellum in anesthetized cynomolgus monkey after 195 mins postinjection; format: ADME, organism-based, Macaca fascicularis; settings: in vivo, 3.25 h
[2] = Drug uptake in anesthetized cynomolgus monkey brain occipital lobe after 125 mins postinjection; format: ADME, organism-based, Macaca fascicularis; settings: in vivo
[3] = Drug uptake in anesthetized cynomolgus monkey brain frontal lobe after 235 mins postinjection; format: ADME, organism-based, Macaca fascicularis; settings: in vivo
[4] = Ratio of drug uptake in midbrain to cerebellum in anesthetized cynomolgus monkey after 215 mins postinjection; format: ADME, organism-based, Macaca fascicularis; settings: in vivo
[5] = Ratio of drug uptake in midbrain to cerebellum in anesthetized cynomolgus monkey after 225 mins postinjection; format: ADME, organism-based, Macaca fascicularis; settings: in vivo, 3.75 h
[6] = Ratio of drug uptake in occipital lobe to cerebellum in anesthetized cynomolgus monkey after 135 mins postinjection; format: ADME, organism-based, Macaca fascicularis; settings: in vivo, 2.25 h
[7] = tested on: Putamen; assay: Drug uptake in anesthetized cynomolgus monkey brain putamen after 135 mins postinjection; format: ADME, organism-based, Macaca fascicularis; settings: in vivo, 2.25 h
[8] = Ratio of drug uptake in occipital lobe to cerebellum in anesthetized cynomolgus monkey after 235 mins postinjection; format: ADME, organism-based, Macaca fascicularis; settings: in vivo
[9] = Ratio of drug uptake in frontal lobe to cerebellum in anesthetized cynomolgus monkey after 3.5 mins postinjection; format: ADME, organism-based, Macaca fascicularis; settings: in vivo
[10] = Ratio of drug uptake in frontal lobe to cerebellum in anesthetized cynomolgus monkey after 35 mins postinjection; format: ADME, organism-based, Macaca fascicularis; settings: in vivo
[11] = tested on: Midbrain; assay: Drug uptake in anesthetized cynomolgus monkey brain midbrain after 145 mins postinjection; format: ADME, organism-based, Macaca fascicularis; settings: in vivo
[12] = tested on: Midbrain; assay: Drug uptake in anesthetized cynomolgus monkey brain midbrain after 215 mins postinjection; format: ADME, organism-based, Macaca fascicularis; settings: in vivo
[13] = tested on: Pons; assay: Drug uptake in anesthetized cynomolgus monkey brain pons after 6.5 mins postinjection; format: ADME, organism-based, Macaca fascicularis; settings: in vivo
[14] = tested on: Pons; assay: Drug uptake in anesthetized cynomolgus monkey brain pons after 12.5 mins postinjection; format: ADME, organism-based, Macaca fascicularis; settings: in vivo
[15] = tested on: Pons; assay: Drug uptake in anesthetized cynomolgus monkey brain pons after 18.5 mins postinjection; format: ADME, organism-based, Macaca fascicularis; settings: in vivo
[16] = tested on: Pons; assay: Drug uptake in anesthetized cynomolgus monkey brain pons after 105 mins postinjection; format: ADME, organism-based, Macaca fascicularis; settings: in vivo, 1.75 h
[17] = Drug uptake in anesthetized cynomolgus monkey brain occipital lobe after 205 mins postinjection; format: ADME, organism-based, Macaca fascicularis; settings: in vivo
[18] = tested on: Putamen; assay: Drug uptake in anesthetized cynomolgus monkey brain putamen after 205 mins postinjection; format: ADME, organism-based, Macaca fascicularis; settings: in vivo
[19] = Ratio of drug uptake in caudate to cerebellum in anesthetized cynomolgus monkey after 135 mins postinjection; format: ADME, organism-based, Macaca fascicularis; settings: in vivo, 2.25 h
[20] = tested on: Medulla; assay: Drug uptake in anesthetized cynomolgus monkey brain medulla after 3.5 mins postinjection; format: ADME, organism-based, Macaca fascicularis; settings: in vivo
[21] = tested on: Medulla; assay: Drug uptake in anesthetized cynomolgus monkey brain medulla after 6.5 mins postinjection; format: ADME, organism-based, Macaca fascicularis; settings: in vivo
[22] = tested on: Medulla; assay: Drug uptake in anesthetized cynomolgus monkey brain medulla after 9.5 mins postinjection; format: ADME, organism-based, Macaca fascicularis; settings: in vivo
[23] = tested on: Medulla; assay: Drug uptake in anesthetized cynomolgus monkey brain medulla after 22.5 mins postinjection; format: ADME, organism-based, Macaca fascicularis; settings: in vivo, 0.375 h
[24] = tested on: Medulla; assay: Drug uptake in anesthetized cynomolgus monkey brain medulla after 45 mins postinjection; format: ADME, organism-based, Macaca fascicularis; settings: in vivo, 0.75 h
[25] = tested on: Medulla; assay: Drug uptake in anesthetized cynomolgus monkey brain medulla after 95 mins postinjection; format: ADME, organism-based, Macaca fascicularis; settings: in vivo
[26] = tested on: Medulla; assay: Drug uptake in anesthetized cynomolgus monkey brain medulla after 105 mins postinjection; format: ADME, organism-based, Macaca fascicularis; settings: in vivo, 1.75 h
[27] = tested on: Medulla; assay: Drug uptake in anesthetized cynomolgus monkey brain medulla after 135 mins postinjection; format: ADME, organism-based, Macaca fascicularis; settings: in vivo, 2.25 h
[28] = tested on: Medulla; assay: Drug uptake in anesthetized cynomolgus monkey brain medulla after 215 mins postinjection; format: ADME, organism-based, Macaca fascicularis; settings: in vivo
[29] = Drug uptake in anesthetized cynomolgus monkey brain cerebellum after 95 mins postinjection; format: ADME, organism-based, Macaca fascicularis; settings: in vivo
[30] = tested on: Caudate; assay: Drug uptake in anesthetized cynomolgus monkey brain caudate after 15.5 mins postinjection; format: ADME, organism-based, Macaca fascicularis, Caudate nucleus; settings: in vivo
[31] = tested on: Caudate; assay: Drug uptake in anesthetized cynomolgus monkey brain caudate after 18.5 mins postinjection; format: ADME, organism-based, Macaca fascicularis, Caudate nucleus; settings: in vivo
[32] = tested on: Caudate; assay: Drug uptake in anesthetized cynomolgus monkey brain caudate after 35 mins postinjection; format: ADME, organism-based, Macaca fascicularis, Caudate nucleus; settings: in vivo
[33] = tested on: Caudate; assay: Drug uptake in anesthetized cynomolgus monkey brain caudate after 45 mins postinjection; format: ADME, organism-based, Macaca fascicularis, Caudate nucleus; settings: in vivo, 0.75 h
[34] = tested on: Caudate; assay: Drug uptake in anesthetized cynomolgus monkey brain caudate after 115 mins postinjection; format: ADME, organism-based, Macaca fascicularis, Caudate nucleus; settings: in vivo
[35] = tested on: Caudate; assay: Drug uptake in anesthetized cynomolgus monkey brain caudate after 145 mins postinjection; format: ADME, organism-based, Macaca fascicularis, Caudate nucleus; settings: in vivo
[36] = tested on: Caudate; assay: Drug uptake in anesthetized cynomolgus monkey brain caudate after 235 mins postinjection; format: ADME, organism-based, Macaca fascicularis, Caudate nucleus; settings: in vivo
[37] = tested on: Putamen; assay: Drug uptake in anesthetized cynomolgus monkey brain putamen after 3.5 mins postinjection; format: ADME, organism-based, Macaca fascicularis; settings: in vivo
[38] = tested on: Thalamus; assay: Drug uptake in anesthetized cynomolgus monkey brain thalamus after 6.5 mins postinjection; format: ADME, organism-based, Macaca fascicularis; design: unit not given here; settings: in vivo
[39] = tested on: Putamen; assay: Drug uptake in anesthetized cynomolgus monkey brain putamen after 4.5 mins postinjection; format: ADME, organism-based, Macaca fascicularis; design: unit not given here; settings: in vivo, 0.075 h
[40] = tested on: Putamen; assay: Drug uptake in anesthetized cynomolgus monkey brain putamen after 15.5 mins postinjection; format: ADME, organism-based, Macaca fascicularis; design: unit not given here; settings: in vivo
[41] = tested on: Putamen; assay: Drug uptake in anesthetized cynomolgus monkey brain putamen after 22.5 mins postinjection; format: ADME, organism-based, Macaca fascicularis; design: unit not given here; settings: in vivo, 0.375 h
[42] = tested on: Putamen; assay: Drug uptake in anesthetized cynomolgus monkey brain putamen after 85 mins postinjection; format: ADME, organism-based, Macaca fascicularis; design: unit not given here; settings: in vivo
[43] = tested on: Thalamus; assay: Drug uptake in anesthetized cynomolgus monkey brain thalamus after 65 mins postinjection; format: ADME, organism-based, Macaca fascicularis; design: unit not given here; settings: in vivo
[44] = tested on: Thalamus; assay: Drug uptake in anesthetized cynomolgus monkey brain thalamus after 165 mins postinjection; format: ADME, organism-based, Macaca fascicularis; design: unit not given here; settings: in vivo, 2.75 h
[45] = tested on: Thalamus; assay: Drug uptake in anesthetized cynomolgus monkey brain thalamus after 215 mins postinjection; format: ADME, organism-based, Macaca fascicularis; design: unit not given here; settings: in vivo
[46] = tested on: Midbrain; assay: Drug uptake in anesthetized cynomolgus monkey brain midbrain after 0.5 mins postinjection; format: ADME, organism-based, Macaca fascicularis; design: unit not given here; settings: in vivo
[47] = tested on: Midbrain; assay: Drug uptake in anesthetized cynomolgus monkey brain midbrain after 6.5 mins postinjection; format: ADME, organism-based, Macaca fascicularis; design: unit not given here; settings: in vivo
[48] = tested on: Midbrain; assay: Drug uptake in anesthetized cynomolgus monkey brain midbrain after 15.5 mins postinjection; format: ADME, organism-based, Macaca fascicularis; design: unit not given here; settings: in vivo
[49] = tested on: Midbrain; assay: Drug uptake in anesthetized cynomolgus monkey brain midbrain after 95 mins postinjection; format: ADME, organism-based, Macaca fascicularis; design: unit not given here; settings: in vivo
[50] = tested on: Midbrain; assay: Drug uptake in anesthetized cynomolgus monkey brain midbrain after 115 mins postinjection; format: ADME, organism-based, Macaca fascicularis; design: unit not given here; settings: in vivo

O=C(OCC[18F])C1C2CCC(CC1c1ccc(/C=C\I)cc1)N2 (stereo not given)
Ratio [1]: 2.6
Drug uptake [2]: 2.24
Drug uptake [3]: 1.51
Ratio [4]: 3.9
Ratio [5]: 4.2
Ratio [6]: 1.3
Drug uptake [7]: 4.33
Ratio [8]: 1.6
Ratio [9]: 0.5
Ratio [10]: 0.7
Drug uptake [11]: 4.65
Drug uptake [12]: 4.63
Drug uptake [13]: 1.36
Drug uptake [14]: 1.88
Drug uptake [15]: 2.17
Drug uptake [16]: 3.4
Drug uptake [17]: 1.73
Drug uptake [18]: 3.94
Ratio [19]: 1.8
Drug uptake [20]: 0.94
Drug uptake [21]: 2.02
Drug uptake [22]: 2.45
Drug uptake [23]: 3.09
Drug uptake [24]: 3.69
Drug uptake [25]: 3.88
Drug uptake [26]: 3.82
Drug uptake [27]: 3.69
Drug uptake [28]: 3.32
Drug uptake [29]: 2.14
Drug uptake [30]: 1.74
Drug uptake [31]: 1.84
Drug uptake [32]: 2.33
Drug uptake [33]: 2.58
Drug uptake [34]: 3.11
Drug uptake [35]: 3.05
Drug uptake [36]: 2.61
Drug uptake [37]: 0.82
Drug uptake [38]: 1.7
Drug uptake [39]: 1.18
Drug uptake [40]: 2.71
Drug uptake [41]: 3.13
Drug uptake [42]: 4.32
Drug uptake [43]: 3.92
Drug uptake [44]: 3.88
Drug uptake [45]: 3.47
Drug uptake [46]: 0
Drug uptake [47]: 1.74
Drug uptake [48]: 2.58
Drug uptake [49]: 4.6
Drug uptake [50]: 4.5
